We go through four compounds from article PMC6802093, “Structural characterization of HypX responsible for CO biosynthesis in the maturation of NiFe-hydrogenase” (Communications Biology, 2019).

The target in experiment [1] is T1, HypX (Aquifex aeolicus, UniProt O67224).
T1 construct: gene hoxX; residues up to 562 described; acid-denatured mass 67,531 Da; monomer; N-terminal domain 1-270, C-terminal domain 289-542
In words: X-ray crystallography, crystal soaking. The experiment is classed as binding. Conditions: Form I crystals soaked with THF; N-terminal domain, chain A only.

The target of experiment [2] is T2, HypX (Aquifex aeolicus, UniProt O67224, A392F/I419F).
T2 construct: gene hoxX; residues up to 562 described; acid-denatured mass 67,531 Da; monomer; N-terminal domain 1-270, C-terminal domain 289-542
T2 sequence (O67224 entry or part of it A392F/I419F): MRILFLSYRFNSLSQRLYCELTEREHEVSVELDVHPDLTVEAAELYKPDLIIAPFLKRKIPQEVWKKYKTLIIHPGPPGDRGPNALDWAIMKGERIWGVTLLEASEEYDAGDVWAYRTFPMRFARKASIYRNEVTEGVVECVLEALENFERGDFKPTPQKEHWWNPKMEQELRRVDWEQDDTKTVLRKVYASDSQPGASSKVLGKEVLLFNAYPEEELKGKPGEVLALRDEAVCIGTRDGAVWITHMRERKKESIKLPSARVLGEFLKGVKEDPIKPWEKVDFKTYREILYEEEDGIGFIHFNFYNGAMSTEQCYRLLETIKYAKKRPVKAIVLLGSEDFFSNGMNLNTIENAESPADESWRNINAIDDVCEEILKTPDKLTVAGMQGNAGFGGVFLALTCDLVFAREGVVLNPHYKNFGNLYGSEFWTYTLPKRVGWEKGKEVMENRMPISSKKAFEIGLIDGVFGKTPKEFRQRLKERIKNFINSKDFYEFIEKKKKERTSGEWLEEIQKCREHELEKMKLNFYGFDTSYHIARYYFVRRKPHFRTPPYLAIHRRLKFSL
In words: X-ray crystallography, crystal soaking. It is filed as binding. The following applies: CoA also bound, extended conformation; N-terminal region of cavity.

The target of experiment [3] is T1, HypX. As to the kind of experiment: X-ray crystallography; native MS. The experiment is classed as binding. The following applies: co-purified from E. coli, none added; non-covalent; folded conformation, C-terminal part of cavity; also Form II crystal 6J1E.
For experiment [4], the target named is T3, HypX (Aquifex aeolicus, UniProt O67224, Q15A/R131A/S194A/Q195A/N306A/R542A).
T3 construct: gene hoxX; residues up to 562 described; acid-denatured mass 67,531 Da; monomer; N-terminal domain 1-270, C-terminal domain 289-542
T3 sequence (O67224 entry or part of it Q15A/R131A/S194A/Q195A/N306A/R542A): as the sequence (O67224 entry or part of it A392F/I419F) above, with Q15A, R131A, S194A, Q195A, N306A, F392A, F419I, R542A counted along it
As to the kind of experiment: native MS. It is filed as binding. The following applies: non-denaturing, 500 mM ammonium acetate pH 6.8; co-purified from E. coli; CoA absent in crystal structure 6J1H.

Experiment [5] has as its target T4, HypX (Aquifex aeolicus, UniProt O67224, R9A/Q15A/R131A/R542A).
T4 construct: gene hoxX; residues up to 562 described; acid-denatured mass 67,531 Da; monomer; N-terminal domain 1-270, C-terminal domain 289-542
As to the kind of experiment: X-ray crystallography. Conditions: co-purified from E. coli; folded conformation. The experiment is classed as binding.

Experiment [6] deals with T2, HypX. As to the kind of experiment: X-ray crystallography. Conditions: co-purified from E. coli; extended conformation, without THF (THF-bound structure 6J1J also holds CoA). It is filed as binding.
Experiment [7] addresses A. aeolicus HypC (Aquifex aeolicus). As to the kind of experiment: SEC; Superdex75 10/300GL, 50 mM Tris-HCl (pH 8.0), 200 mM NaCl, 1 mM DTT; HypC alone, HypD alone, and HypC and HypD mixed in equal molar amount; apparent masses. In general terms: SEC sorts molecules by how far they enter the pores of the column.
Experiment [8] has as its target HypC/HypD complex (A. aeolicus) (Aquifex aeolicus) (UniProt O67225). In words: SEC; Superdex200 10/300GL, 50 mM Tris-HCl (pH 8.0), 200 mM NaCl, 1 mM DTT; HypC, HypD and HypX mixed in equal molar amount; apparent mass.

T1 sequence (O67224 entry or part of it): as the sequence (O67224 entry or part of it A392F/I419F) above, with F392A, F419I counted along it
T4 sequence (O67224 entry or part of it R9A/Q15A/R131A/R542A): as the sequence (O67224 entry or part of it A392F/I419F) above, with R9A, Q15A, R131A, F392A, F419I, R542A counted along it

As for `Nc1nc2c(c(=O)[nH]1)N[C@@H](CNc1ccc(C(=O)N[C@@H](CCC(=O)O)C(=O)O)cc1)CN2` [THF], the “X-ray crystallography, crystal soaking” value at HypX [1] is listed as “We obtained HypX-THF complex by soaking Form I HypX crystals with THF”; at HypX [2], “THF is bound at the N-terminal region of the cavity at the same position”.
Consider `CC(C)(COP(=O)(O)OP(=O)(O)OC[C@H]1O[C@@H](n2cnc3c(N)ncnc32)[C@H](O)[C@@H]1OP(=O)(O)O)[C@@H](O)C(=O)NCCC(=O)NCCS` [CoA], for which, at HypX [3], the “X-ray crystallography; native MS” value is “HypX binds CoA constitutively with a high binding affinity”. Also, on HypX [4], the “native MS” value is “showed two MS peaks due to apo (CoA-free) and holo (CoA-bound) form”. Besides, the X-ray crystallography result at HypX [5] is “this variant binds CoA with the folded conformation as is the case of wild-type”; on HypX [6] it was “CoA is able to adopt the extended conformation in the A392F-I419F variant”.
On to A. aeolicus HypC (natural protein), for which, in experiment [7], the stoichiometry N turned out to be 2.
On to HypX from Aquifex aeolicus (enzyme), for which, in experiment [8], the stoichiometry N was 1.

As a reminder, the stoichiometry N is the number of molecules, sites or subunits per partner or assembly.
